Measured values published in paper PMC2248166, “Quantitative peptide binding motifs for 19 human and mouse MHC class I molecules derived using positional scanning combinatorial peptide libraries” (Immunome Research, 2008).
Where a SMILES comes first, the peptide text is derived from it.

These compounds were tested against HLA B*1503 (Homo sapiens, UniProt P01889, A329T/A93T/A95T/C349S/D201E/D98Y/E187L/E204Q/K202T/N87E/Q94N/R155S/R180L/S121R/S35A/V306I/V36M/Y140S/Y91S) (assay: biochemical).
Type: binding

In order of rising IC50:
1. CC[C@H](C)[C@H](NC(=O)[C@H](CC(N)=O)NC(=O)[C@H](Cc1c[nH]cn1)NC(=O)[C@H](CCC(N)=O)NC(=O)[C@@H](N)C(C)C)C(=O)N[C@@H](CCCCN)C(=O)N[C@@H](Cc1c[nH]cn1)C(=O)N[C@@H](CO)C(=O)N[C@@H](Cc1ccccc1)C(=O)O [3102.1075] (H-VQHNIKHSF-OH)  0.2 nM
2. CC(C)C[C@H](NC(=O)[C@H](CO)NC(=O)[C@@H](NC(=O)[C@H](CCCNC(=N)N)NC(=O)[C@H](CO)NC(=O)[C@H](CC(C)C)NC(=O)[C@H](Cc1ccc(O)cc1)NC(=O)[C@H](CCC(N)=O)NC(=O)[C@@H](N)CO)C(C)C)C(=O)O [3102.1130] (H-SQYLSRVSL-OH)  0.24 nM
3. CC(C)[C@H](NC(=O)[C@H](CCC(N)=O)NC(=O)[C@@H](N)CCCNC(=N)N)C(=O)N[C@H](C(=O)N[C@@H](CC(=O)O)C(=O)N[C@@H](Cc1ccccc1)C(=O)N[C@@H](Cc1ccccc1)C(=O)N[C@@H](CCCCN)C(=O)N[C@@H](Cc1ccccc1)C(=O)O)C(C)C [3102.1123] (H-RQVVDFFKF-OH)  0.34 nM
4. CC[C@H](C)[C@H](N)C(=O)N[C@@H](CCC(N)=O)C(=O)N[C@@H](CCCNC(=N)N)C(=O)N[C@H](C(=O)N[C@@H](Cc1ccc(O)cc1)C(=O)N[C@@H](CO)C(=O)N[C@@H](CO)C(=O)N[C@@H](CO)C(=O)N[C@H](C(=O)O)[C@@H](C)CC)[C@@H](C)O [3102.1209] (H-IQRTYSSSI-OH)  0.83 nM
5. CSCC[C@H](NC(=O)[C@H](CC(N)=O)NC(=O)CNC(=O)[C@H](CS)NC(=O)CNC(=O)[C@H](Cc1ccc(O)cc1)NC(=O)[C@H](CCCCN)NC(=O)[C@@H](N)CCCNC(=N)N)C(=O)N[C@@H](Cc1ccccc1)C(=O)O [3102.1308] (H-RKYGCGNMF-OH)  1.3 nM
6. CC[C@H](C)[C@H](NC(=O)[C@H](CCSC)NC(=O)[C@H](C)NC(=O)[C@H](C)NC(=O)[C@@H](N)Cc1ccccc1)C(=O)N[C@H](C(=O)N[C@@H](CCCNC(=N)N)C(=O)N[C@@H](CO)C(=O)N[C@@H](Cc1ccccc1)C(=O)O)[C@@H](C)CC [3102.1048] (H-FAAMIIRSF-OH)  1.3 nM
7. CSCC[C@H](NC(=O)[C@@H](NC(=O)[C@H](CO)NC(=O)[C@@H](NC(=O)[C@H](Cc1ccc(O)cc1)NC(=O)[C@@H](NC(=O)[C@H](Cc1ccccc1)NC(=O)[C@H](CCCCN)NC(=O)[C@@H](N)CO)C(C)C)C(C)C)C(C)C)C(=O)O [3102.1213] (H-SKFVYVSVM-OH)  1.6 nM
8. CC(C)C[C@H](NC(=O)[C@H](C)NC(=O)[C@H](CCC(N)=O)NC(=O)[C@H](CCC(N)=O)NC(=O)[C@@H](NC(=O)[C@@H](N)Cc1ccccc1)[C@@H](C)O)C(=O)N[C@@H](CO)C(=O)N[C@@H](CO)C(=O)N[C@@H](Cc1ccccc1)C(=O)O [3102.1087] (H-FTQQALSSF-OH)  6.4 nM
9. CC[C@H](C)[C@H](N)C(=O)N[C@@H](CCC(=O)O)C(=O)N[C@H](C(=O)N[C@@H](CO)C(=O)N[C@@H](CO)C(=O)N[C@@H](CC(=O)O)C(=O)N[C@H](C(=O)N[C@@H](CO)C(=O)N[C@@H](Cc1ccccc1)C(=O)O)[C@@H](C)CC)C(C)C [3102.1201] (H-IEVSSDISF-OH)  9.7 nM
10. CC(C)C[C@H](NC(=O)[C@H](Cc1ccccc1)NC(=O)[C@@H]1CCCN1C(=O)[C@H](CCCNC(=N)N)NC(=O)[C@@H](NC(=O)[C@H](CC(C)C)NC(=O)[C@@H](N)CCCNC(=N)N)C(C)C)C(=O)N[C@H](C(=O)N[C@H](C(=O)O)C(C)C)C(C)C [3102.1135] (H-RLVRPFLVV-OH)  16 nM
11. CC(C)[C@H](NC(=O)[C@H](Cc1c[nH]cn1)NC(=O)[C@H](CCC(N)=O)NC(=O)CNC(=O)[C@H](Cc1ccccc1)NC(=O)[C@H](CS)NC(=O)[C@H](CC(N)=O)NC(=O)[C@H](C)NC(=O)[C@H](C)N)C(=O)O [3102.1133] (H-AANCFGQHV-OH)  22 nM
12. CC(C)C[C@H](NC(=O)[C@@H](N)CCCCN)C(=O)N[C@H](C(=O)N[C@@H](CO)C(=O)N[C@H](C(=O)N[C@@H](CCC(=O)O)C(=O)N[C@H](C(=O)N[C@@H](CO)C(=O)N[C@@H](Cc1ccccc1)C(=O)O)[C@@H](C)O)[C@@H](C)O)[C@@H](C)O [3102.1165] (H-KLTSTETSF-OH)  25 nM
